Experimental data taken from US20190201431A1, “EX VIVO METHODS OF INDUCING IDO EXPRESSION IN ANTIGEN PRESENTING CELLS USING A COMPOUND SELECTED FROM THE GROUP CONSISTING OF AZACYTIDINE, AND DECITABINE” (IDOGEN AB, priority 2016, published 2019).

Columns and labels:
[1] = test system: IDO1 gene expression in THP-1 cells; experiment: Induction of IDO1 in THP-1 cells (RT-qPCR); format: cell-based, human; details: 96 hours; for concentration at which the highest level of IDO induction was observed: tested 0.1-10 micromolar; for increase of IDO1 gene expression (maximum over tested concentrations): compound alone
Experimental: THP-1 cells were harvested from appropriate number of T75 flasks. Cells were counted in a Bürker chamber, stained with 0.4% Trypan Blue. The appropriate number of cells for each experiment were transferred to a new tube and centrifuged at 1200 rpm, 5 min at room temperature (RT). The supernatant was discarded and fresh RPMI with 5% FBS were added to get a cell concentration of 2×10^5 cells/mL. The compound was added to the five separate wells in 6-well plates such that five different final concentrations were obtained after adding the cells. A control was added to one well in the 6-well plate to which cells were added. 1×10^6 cells per well were seeded out to achieve a total volume of 5 mL per well. The cells were incubated at 37° C. in 5% CO2 for 96 hours. After 96 hours the assay was stopped and the cells were lysed for the isolation of RNA.
Total RNA was extracted from THP-1 cells using the RNA RNeasy Mini extraction kit (Qiagen), according to the manufacturer's instructions. A SuperScript® VILO™ RT-kit (Thermo Fisher) was used to reverse transcribe 1 μg of total RNA to cDNA and qPCR was performed. The primers used for amplification of the human IDO1 gene were 5′-[…]-3′ (forward; SEQ ID No. 1) and 5′-[…]-3′ (reverse; SEQ ID No. 2). The primers used for amplification of the endogenous reference gene for human HPRT1 were 5′-[…]-3′ (forward; SEQ ID No. 3) and 5′-[…]-3′ (reverse; SEQ ID No. 4). In brief, RT-qPCR was performed in 20 μl reaction, consisting 10 μl PowerUp SYBR Green Master Mix, 0.5 μM of each primer, 4 μl diluted cDNA for amplification of IDO1 and 1.5 μl diluted cDNA for amplification of HPRT1. An iCycler iQ real-time detection system (Stratagene, Mx3000P, La Jolla, Calif., USA) with the following thermal profile: UDG incubation at 50° C. for 2 min, then denaturation at 95° C. for 5 min, followed by 45 cycles at 94° C. for 15 s, 58° C. for 30 s, and 60° C. for 30 s, was used to perform thermocycling and real-time detection of PCR products. After amplification a melting curve analysis was performed. The RT-qPCR experiments were always run in triplicate. IDO1 was normalised to the geometric means of two HPRT1 reference gene, using the ΔCt method. Within-group comparisons were normalized to one control sample, using the ΔΔCt method.

[2] = test system: collagen-induced arthritis in DBA/1 mice; experiment: Treatment of collagen-induced arthritis in vivo; details: 1 mg/kg for 4 days from day of arthritis onset, scored 10 days, vs vehicle (FIG. 3, P<0.05)
Experimental: DBA/1 mice were immunized with bovine type II collagen emulsified in complete Freund's adjuvant. The mice were treated with decitabine (1 mg/kg) for 4 days, starting on the day of arthritis onset. Treatment was then stopped. Negative controls received vehicle alone. Clinical scores were monitored for 10 days following onset of arthritis. A clinical scoring system was used as follows. Arthritis severity was scored by an experienced non-blinded investigator as follows: 0=normal, 1=slight swelling and/or erythema, 2=pronounced swelling, 3=ankylosis. All four limbs were scored, giving a maximum possible score of 12 per animal.

naïve CD4+ CD25− T cells = experiment: Conversion of CD4+CD25− T cells into CD4+FoxP3+ Tregs in vitro; format: cell-based
Experimental: To assess the effect of decitabine on the generation of Tregs, naïve CD4+ CD25− T cells were cultured with mitomycin C treated APCs plus IL-2, TGFβ and anti-CD3 in the presence or absence of decitabine and numbers of CD4^+FoxP3^+ Tregs were determined by FACS after 72 h. The RNA was isolated from cell lysate, and reverse transcribed to cDNA for RT-qPCR analysis using Taqman primer probes. Expression of genes encoding Foxp3 was normalized to HPRT expression and was calibrated relative to vehicle group.

Row | Compound | dose dependence of IDO1 gene expression ([1]; 0.1-10 micromolar) | concentration at which the highest level of IDO induction was observed [1] | increase of IDO1 gene expression (maximum over tested concentrations) ([1]; 0.1-10 micromolar) | IDO1 expression (fold change) ([1]; decitabine 0.1 micromolar, vs DMSO control) | IDO1 expression (fold change) ([1]; decitabine 0.3 micromolar, vs DMSO control) | IDO1 expression (fold change) ([1]; decitabine 1 micromolar, vs DMSO control) | IDO1 expression (fold change) ([1]; decitabine 3 micromolar, vs DMSO control) | IDO1 expression (fold change) ([1]; decitabine 10 micromolar, vs DMSO control) | disease severity (mean clinical score) [2] | relative expression of the Foxp3 gene (RT-qPCR) (naïve CD4+ CD25− T cells; normalized to HPRT, relative to vehicle group, vs control "nil" (FIG. 4C)) | frequencies of CD4+FoxP3+ Tregs (FACS) (naïve CD4+ CD25− T cells; with mitomycin C treated APCs, IL-2, TGFβ, anti-CD3, after 72 h, vs control "nil" (FIG. 4B)) | IDO1 expression (fold change) ([1]; azacytidine 0.1 micromolar, vs H2O:HAc control) | IDO1 expression (fold change) ([1]; azacytidine 0.3 micromolar, vs H2O:HAc control) | IDO1 expression (fold change) ([1]; azacytidine 1 micromolar, vs H2O:HAc control) | IDO1 expression (fold change) ([1]; azacytidine 3 micromolar, vs H2O:HAc control) | IDO1 expression (fold change) ([1]; azacytidine 10 micromolar, vs H2O:HAc control)
1 | Nc1ncn([C@H]2C[C@H](O)[C@@H](CO)O2)c(=O)n1 [decitabine, 4-Amino-1-(2-deoxy-β-D-ribofuranosyl)-1,3,5-triazin-2(1H)-one] | a dose-related response was observed | 10 µM | up to 101 fold | 6 fold change | 16.4 fold change | 40 fold change | 87 fold change | 101 fold change | successful in reducing disease severity | increased in a dose-dependent manner | increased in a dose-dependent manner |  |  |  |  | 
2 | Nc1ncn([C@@H]2O[C@H](CO)[C@@H](O)[C@H]2O)c(=O)n1 [azacytidine, 4-Amino-1-(β-D-ribofuranosyl)-1,3,5-triazin-2(1H)-one] |  | 1 µM | up to 23 fold |  |  |  |  |  |  |  |  | 0.5 fold change | 1.2 fold change | 23 fold change | 6 fold change | 8.6 fold change
